The source of these data is patent US11077151B2, “Ascaroside treatment of autoimmune and inflammatory diseases” (California Institute of Technology, priority 2016, dated 2021).

The subject of assay [1] is IL-1β secretion, bone marrow-derived mouse dendritic cells. As to the kind of experiment: IL-1β secretion by TNF-α stimulated bone marrow dendritic cells (ELISA). In kind it is cell-based. The conditions noted are these: different concentrations of ascr #7. On the procedure:
(§1) Bone marrow was extracted from femurs of C57BL/6 mice (6-12 weeks of age). These mice were euthanized by CO2 inhalation and their femurs were removed. After removing the remaining flesh from the bone, they were cut at the metaphysis. Bone marrow was flushed out using a syringe filled with RPMI. The extracted marrow was further broken down by resuspension with syringe. The mixture was centrifuged and the pellet was re-suspended in RPMI. […] 20 ng of GM-CSF was added to each well. At day 3, and every 3 days thereafter, the media was replaced. Cells were used for experiments between day 7-9.
(§2) Bone marrow dendritic cells were collected between day 7-9 of culture. Cells were washed twice and counted. Ascr #7 in water or RPMI were placed in corresponding wells, and are allowed to dry. 10^6 cells were then plated in each well in a 24 well culture plate. Cells were left to incubate with ascr #7 for 5 minutes. Following the brief incubation, different TNFα was added to the wells. These bone marrow dendritic cells were then cultured at 37° C. for 18-72 hours. Cells were collected via the pellet generated by centrifuge. The supernatant was also preserved. EBioscience ELISA kits was used to determine the concentration of different cytokines present in each well.
For orientation: In an ELISA, binding on a coated surface is turned into a signal by an enzyme label.

For assay [2], the system named is ovalbumin model of murine asthma (C57BL/6 mice). Description: Ovalbumin model of murine asthma. In kind it is in vivo, mouse. The procedure:
Adult C57BL/6 mice were sensitized by administering 2 ug OVA (Sigma-Aldrich) and 1 mg alum (Thermo) with 50 ng ascr #7 or saline, via intraperitoneal injection, on Day 0 and 14. On day 24, the mice were challenged with intranasal administration of saline containing 100 μg OVA, under isoflurane anesthesia. Histologic sections were stained with H&E or PAS to score for eosinophilia, goblet cell metaplasia, and airway hyper-reactivity. Mice were also placed in a computer controlled small animal ventilator (SCIREQ) to score for airway hyper-reactivity following methacholine challenge. […] Animals with asthma have higher resistance of flow, which would be represented as higher “RL” values in FIG. 3B. […] Lungs were collected, postmortem, and then sectioned and stained to show the presence of eosinophils and mucus. […] In FIG. 3C, the asthmatic mouse lung, here labeled “Control” has a large number of mucus and eosinophils that surround the bronchioles and occupy the alveolar space; wherein the thick barriers would prohibit oxygen from easily diffusing.

For assay [3], the system named is IL-6 secretion, bone marrow-derived mouse dendritic cells. Description: IL-6 secretion by TNF-α stimulated bone marrow dendritic cells (ELISA). In kind it is cell-based. The conditions noted are these: different concentrations of ascr #7. The procedure:
as §1, §2

For assay [4], the system named is NOD/ShiLtJ mouse model of Type 1 Diabetes. As to the kind of experiment: NOD/ShiLtJ mouse model of Type 1 Diabetes. In kind it is in vivo. The conditions noted are these: 100 ng ascr #7 i.p. three times a week. The procedure: The NOD/ShiLtJ (Jackson Laboratories) mouse model of Type 1 Diabetes was used These mice typically develop hyperglycemia around 17-18 weeks of life. Either saline or 100 ng ascr #7 was administered three times a week via intraperitoneal injection. Blood glucose levels were determined in the same mouse over time, via the collected of tail vein blood (as shown in FIG. 4A) at multiple time points. […] 8 mice were injected with saline and 8 mice were injected with ascr #7, as described above.

Assay [5] has as its system T cell transfer model of colitis, Rag -/- mice. Description: T cell transfer model of colitis (IBD). Type of assay: in vivo, mouse. The note with it: 300 ng ascr #7 i.p. every 3 days, day 14 to 28. The procedure: A T cell transfer model of colitis where 10^6CD4+ T cells were transferred to adult Rag −/− mice was used, and either saline or 300 ng ascr #7 were administered via intraperitoneal injection every 3 days between day 14 and day 28. On day 28, the mice were euthanized and colon analysis was performed. n=3 mice per group. […] The normal mouse colon is long, skinny, and has discrete fecal pellets. The diseased mouse colon, with IBD, has a shortened, dilated colon, with diarrhea instead of discrete fecal pellets.

The target in assay [6] is T1, IL-6 receptor (Homo sapiens, UniProt P08887).
T1 construct: host or cells: human patients (endogenous receptor)
T1 sequence (P08887 20-468): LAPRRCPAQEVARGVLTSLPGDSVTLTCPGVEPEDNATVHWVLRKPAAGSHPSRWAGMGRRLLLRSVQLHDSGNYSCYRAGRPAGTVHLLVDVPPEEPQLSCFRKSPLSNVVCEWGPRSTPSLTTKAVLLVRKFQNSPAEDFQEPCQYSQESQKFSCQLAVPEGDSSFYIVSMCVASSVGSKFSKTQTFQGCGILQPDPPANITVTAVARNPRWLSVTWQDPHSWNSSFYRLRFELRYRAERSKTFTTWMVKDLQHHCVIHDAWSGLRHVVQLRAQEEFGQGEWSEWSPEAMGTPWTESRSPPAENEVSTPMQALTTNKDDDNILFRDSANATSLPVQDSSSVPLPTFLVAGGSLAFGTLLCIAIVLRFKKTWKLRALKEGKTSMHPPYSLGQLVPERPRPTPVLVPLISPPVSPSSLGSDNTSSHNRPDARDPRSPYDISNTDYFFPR
The conditions noted are these: cited from earlier work.

The mark [7] stands for this setting: ovalbumin model, 50 ng ascr #7 i.p.

For the molecule `C[C@H](CC/C=C/C(=O)O)O[C@@H]1O[C@@H](C)[C@H](O)C[C@H]1O` [ascr #7], in assay [1] (dendritic cells not stimulated with TNF-α, FIG. 2 left), the IL-1β level result is reported as “very low levels of IL-1β”. In assay [1] (dendritic cells stimulated with TNF-α, FIG. 2 right), the “secreted IL-1β level” value was “reduces these levels significantly”. Further, the “lung histology (boundaries between bronchioles and alveolar space; eosinophils and mucus)” value in assay [2] (50 ng ascr #7 i.p. Day 0 and 14, stained lung sections, FIG. 3C) is “thin boundaries between the bronchioles and the alveolar space, comparable to the normal mice”. For the same molecule, the “resistance of air flow (RL)” value in assay [2] (50 ng ascr #7 i.p. Day 0 and 14 with OVA/alum, methacholine challenge, FIG. 3B) is on record as “low resistance of air flow, with comparable levels to normal mice”. In addition, in assay [2] (setting [7]), the “development of airway hyper-reactivity” value is given as “reduces”, the development of eosinophilia result was “reduces” and the “development of goblet cell metaplasia” value is “reduces”. Further, in assay [3] (dendritic cells not stimulated with TNF-α, FIG. 1 left), the IL-6 level result is “very low levels of IL-6”. Also, in assay [3] (dendritic cells stimulated with TNF-α, FIG. 1 right), the “secreted IL-6 level” value is “reduces these levels significantly”. The “blood glucose levels, individual mice” value in assay [4] (throughout 18 weeks, FIG. 4B) is “significantly reduced blood glucose levels”. The “blood glucose levels, group average vs untreated group” value in assay [4] (week 18, FIG. 4C) is on record as “significantly lower blood glucose levels”. Besides, the conversion to hyperglycemia result in assay [4] (NOD mice) was “delays conversion to hyperglycemia”. In assay [5], the “development of abnormal lumen dilation” value is recorded as “markedly reduces”, the “development of colon shortening” value is “markedly reduces” and the development of diarrhea result is given as “markedly reduces”. The “colon appearance on day 28” value in assay [5] (FIG. 5) was “normal appearing colon, which is long, skinny, and contains discrete fecal pellets”.
In the case of “Tocilizumab: a humanized anti-IL-6 receptor antibody”, the “clinical activity of atopic dermatitis” value in assay [6] (3 patients with severe atopic dermatitis, Navarini et al. 2011) is “decreased clinical activity”. Besides, the “relapse rates, neuropathic pain and general fatigue, neuromyelitis optica” value in assay [6] (after one year of treatment, Araki et al. 2014) is “decreased”. For the same molecule, in assay [6] (at 6 months, Espinoza et al. 2015), the “manifestations of eosinophilic fasciitis” value is “remission of both articular and cutaneous manifestations”. Further, in assay [6] (one patient, Berti et al. 2015), the “disease remission, severe multisystemic microscopic polyangiitis” value is “complete and sustained disease remission”. Besides, the treatment of uveitis entry in assay [6] (patients, Mesquida et al. 2014) is on record as “effective”. Moreover, in assay [6] (person, relapsed after prednisone, Shibuya et al. 2013), the “inflammatory response and quality of life measures, Cogan's syndrome” value was “successfully improved”.
